Among the data in patent publication US20080021217A1, “HETEROCYCLIC INHIBITORS OF RHO KINASE” (priority 2006, published 2008) are IC50 values, retold here.

By IC50 is commonly meant the concentration that gives 50% inhibition.

SMILES strings stand for the structures.

Test [1] concerns the target T1, recombinant N-terminal GST-tagged human Rho kinase 1 (ROCK1, amino acids 1-535) (Homo sapiens, UniProt Q13464).
T1 construct: ROCK1, amino acids 1-535, Invitrogen Inc., cat. #PV-3691; GST (N); purchased Invitrogen Inc. PV-3691
Kind of test: In vitro Rho kinase assay (luciferase-based ATP consumption), ROCK1. It is filed as biochemical. As for the experimental part: (§1) Rho kinase biochemical assays described below depend on firefly luciferase-based, indirect measurement of total ATP consumption by the kinase following incubation with substrate and ATP. 25 μl of Rho kinase assay buffer (20 mM Tris-HCL [pH 7.5], 1 mM MgCl2, 0.4 mM CaCl2, 0.15 mM EGTA, 0.1 mg/ml bovine serum albumin) containing 0.82 μg/ml of recombinant N-terminal GST-tagged human Rho kinase 1 (ROCK1, amino acids 1-535, Invitrogen Inc., cat. #PV-3691) or recombinant N-terminal GST-tagged human Rho kinase 2 (ROCK2, amino acids 1-552, Invitrogen Inc., cat #PV3759), 100 μg/ml S6 peptide substrate (related to amino acids 218-249 of the human 40S ribosomal protein S6, and suitable for ROCK1 or ROCK2, e.g. Upstate/Millipore Inc., cat #12-420), and 3 µM ATP are dispensed to wells of a 384 multi-well opaque plate. The plate is centrifuged for 30 seconds at approximately 200×g. 240 nl of test compound in DMSO is dispensed to each well by passive pin transfer. The lag phase of this in vitro kinase reaction permits addition of compounds soon after the reaction initiates. The reaction is allowed to incubate at 30° C. for 2 hours. The assay plates are sealed and maintained in a humidified environment. After 2 hours, 25 μl of easyLite protein kinase assay reagent (Perkin-Elmer, Inc.) is dispensed. After an additional 10 minute incubation at room temperature (about 22° C.), luminescence activity is measured on a Molecular Devices Analyst multi-mode plate reader or other suitable plate reader. Kinase inhibition results in less ATP consumption, and therefore increased luminescence signal. Negative control activity is measured with DMSO lacking any test compound. The positive control is 2-methyl-1-(4-methylisoquinolin-5-ylsulfonyl)perhydro-1,4-diazepine hydrochloride (aka H-1152P, HCl salt). Efficacy is measured as a percentage of positive control activity. […] In some cases, kinase reactions and compound testing are performed in 1536 multi-well plates under similar conditions, with assay volumes appropriately scaled. The designated NT means the cited example was not tested.

Test [2] has as its target T2, recombinant N-terminal GST-tagged human Rho kinase 2 (ROCK2, amino acids 1-552) (Homo sapiens, UniProt O75116).
T2 construct: ROCK2, amino acids 1-552, Invitrogen Inc., cat #PV3759; GST (N); purchased Invitrogen Inc. PV3759
Briefly: In vitro Rho kinase assay (luciferase-based ATP consumption), ROCK2. It is filed as biochemical. As for the experimental part: as §1

T1 sequence (Q13464 1-535): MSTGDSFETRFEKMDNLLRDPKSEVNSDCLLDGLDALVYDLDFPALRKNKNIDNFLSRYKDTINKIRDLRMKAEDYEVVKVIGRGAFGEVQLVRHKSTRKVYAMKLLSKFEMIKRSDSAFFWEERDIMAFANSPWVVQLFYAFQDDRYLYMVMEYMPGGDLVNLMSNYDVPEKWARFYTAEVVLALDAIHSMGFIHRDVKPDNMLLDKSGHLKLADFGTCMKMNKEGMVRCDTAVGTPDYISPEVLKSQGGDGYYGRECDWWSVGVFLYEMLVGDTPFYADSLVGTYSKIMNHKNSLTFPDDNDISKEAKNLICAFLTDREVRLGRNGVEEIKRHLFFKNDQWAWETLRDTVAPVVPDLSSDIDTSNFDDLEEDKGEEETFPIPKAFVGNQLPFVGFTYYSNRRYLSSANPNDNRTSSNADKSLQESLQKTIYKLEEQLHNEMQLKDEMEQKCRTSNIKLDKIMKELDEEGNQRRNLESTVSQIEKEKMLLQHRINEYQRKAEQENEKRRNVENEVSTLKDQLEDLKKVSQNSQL
T2 sequence (O75116 1-552): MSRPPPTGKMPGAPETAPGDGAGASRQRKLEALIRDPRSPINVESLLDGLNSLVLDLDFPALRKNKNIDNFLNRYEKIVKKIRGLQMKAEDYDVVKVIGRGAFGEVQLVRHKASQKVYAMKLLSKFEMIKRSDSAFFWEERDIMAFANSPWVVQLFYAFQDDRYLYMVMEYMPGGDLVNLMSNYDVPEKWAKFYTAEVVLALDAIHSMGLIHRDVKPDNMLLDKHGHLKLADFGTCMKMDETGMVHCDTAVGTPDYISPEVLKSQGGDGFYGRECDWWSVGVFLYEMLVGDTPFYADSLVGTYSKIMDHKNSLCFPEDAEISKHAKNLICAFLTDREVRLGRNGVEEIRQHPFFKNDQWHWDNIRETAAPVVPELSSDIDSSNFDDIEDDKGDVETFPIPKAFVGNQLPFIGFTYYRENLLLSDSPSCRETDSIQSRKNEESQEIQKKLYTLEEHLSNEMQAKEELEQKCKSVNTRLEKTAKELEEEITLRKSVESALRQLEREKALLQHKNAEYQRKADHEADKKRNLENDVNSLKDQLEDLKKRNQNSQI

As to `O=C(NCc1nc(-c2c[nH]c3ncccc23)n[nH]1)c1ccc(O)cc1O` [Example 69], the IC50 in test [1] and in test [2] was < 5 µM throughout.
For `O=C(NCc1nc(-c2c[nH]c3ncccc23)n[nH]1)c1cccs1` [Example 70, N-((3-(1H-pyrrolo[2,3-b]pyridin-3-yl)-1H-1,2,4-triazol-5-yl)methyl)thiophene-2-carboxamide], the IC50 in test [1] and in test [2] was < 5 µM throughout.
As to `Cc1cccc(C(=O)NCc2nc(-c3c[nH]c4ncccc34)n[nH]2)c1O` [Example 71, N-((3-(1H-pyrrolo[2,3-b]pyridin-3-yl)-1H-1,2,4-triazol-5-yl)methyl)-2-hydroxy-3-methylbenzamide], the IC50 in test [1] is < 5 µM; in test [2], > 5 µM.
Taken in the same sequence, the figures for `CS(=O)(=O)Nc1cccc(C(=O)NCc2nc(-c3c[nH]c4ncccc34)n[nH]2)c1` [Example 72, N-((3-(1H-pyrrolo[2,3-b]pyridin-3-yl)-1H-1,2,4-triazol-5-yl)methyl)-3-(methylsulfonamido)benzamide] were < 5 µM and < 5 µM.
Taken in the same sequence, the figures for `CS(=O)(=O)Nc1cccc(C(=O)NCc2nc(-c3c[nH]c4ncccc34)cs2)c1` [Example 73, N-((4-(1H-pyrrolo[2,3-b]pyridin-3-yl)thiazol-2-yl)methyl)-3-(methylsulfonamido)benzamide] were < 5 µM and < 5 µM.
Taken in the same sequence, the figures for `COc1cccc(C(=O)NCc2nc(-c3c[nH]c4ncccc34)cs2)c1` [Example 74, N-((4-(1H-pyrrolo[2,3-b]pyridin-3-yl)thiazol-2-yl)methyl)-3-methoxybenzamide] were < 5 µM and < 5 µM.
As for `O=C(NCc1nc(-c2c[nH]c3ncccc23)cs1)c1cccs1` [Example 75, N-((4-(1H-pyrrolo [2,3-b]pyridin-3-yl)thiazol-2-yl)methyl)thiophene-2-carboxamide], the IC50 in test [1] and in test [2] was < 5 µM throughout.
As for `O=C(NCc1nnc(-c2ccnc3[nH]ccc23)o1)c1ccc(O)cc1O` [Example 76, N-((5-(1H-Pyrrolo[2,3-b]pyridin-4-yl)-1,3,4-oxadiazol-2-yl)methyl)-2,4-dihydroxybenzamide], the IC50 in test [1] and in test [2] was < 5 µM throughout.
Turning to `CC(C)(C)OC(=O)NCC[C@H](NC(=O)c1ccc(O)cc1O)c1nc(-c2ccncc2)n[nH]1` [Example 77, (S)-tert-Butyl 3-(2,4-dihydroxybenzamido)-3-(3-(pyridin-4-yl)-1H-1,2,4-triazol-5-yl)propylcarbamate], the IC50 in test [1] and in test [2] was < 5 µM throughout.
As to `CC(C)(C)OC(=O)NCCCC(NC(=O)c1ccc(O)cc1O)c1nc(-c2ccncc2)n[nH]1` (stereo not drawn) [Example 78, tert-Butyl 4-(2,4-dihydroxybenzamido)-4-(3-(pyridin-4-yl)-1H-1,2,4-triazol-5-yl)butylcarbamate], the IC50 in test [1] and in test [2] was < 5 µM each time.
With `CC(C)(C)OC(=O)NC[C@H](NC(=O)c1ccc(O)cc1O)c1nc(-c2ccncc2)n[nH]1` [Example 79, (S)-tert-Butyl 2-(2,4-dihydroxybenzamido)-2-(3-(pyridin-4-yl)-1H-1,2,4-triazol-5-yl)ethylcarbamate], the IC50 in test [1] and in test [2] was < 5 µM in each case.
For the compound `Clc1ccc(SCc2nc(-c3ccncc3)n[nH]2)cc1` [Example 80], the IC50 in test [1] and in test [2] was < 5 µM throughout.
